Source: PMC8164657, “Intraoperative visualization of nerves using a myelin protein-zero specific fluorescent tracer” (EJNMMI Research, 2021)
Values after ≈ are worked out from the molar mass of the structure shown. One block for each compound: values may come before it. Residues, ends and D or L forms follow the SMILES beside them. *: point of attachment. X1 = CC1(C)C(/C=C/C=C/C=C2/N(CCCCS(=O)(=O)O)c3ccc(S(=O)(=O)O)cc3C2(C)C)=[N+](CCCCCC(=O)NCCN2C(=O)CC(*)C2=O)c2ccc(S(=O)(=O)[O-])cc21; X2 = CC1(C)C(=C/C=C/C=C/C2=[N+](CCCCS(=O)(=O)O)c3ccc(S(=O)(=O)[O-])cc3C2(C)C)N(CCCCCC(=O)NCCN2C(=O)CC(*)C2=O)c2ccc(S(=O)(=O)O)cc21; X3 = O=C(O)CN(CCN(CCN(CC(=O)O)CC(=O)O)CC(=O)NCCN1C(=O)CC(*)C1=O)CC(=O)O

Legend:
[1] = Biodistribution in mice; format: in vivo; conditions: mouse, CNS, total radioactivity; 10 MBq intravenous (tail vein), 4 h p.i.
Experimental: Synthesis and radiolabelling of DTPA-P0_101–125 with ^111In is described in Additional file 1: synthesis of control compounds. For quantitative assessment of the biodistribution of [^111In]In-DTPA-P0_101–125, 10 MBq of the labelled tracer was injected intravenously (tail vein). The percentage of the injected activity per gram of tissue (%IA/g) was assessed at 2 h post-injection as previously described. Excretion was defined as: (MBq present in animal at 24 h post-tracer administration/injected activity) * 100%.

[2] = system: P0-expressing RT4 D6P2T myelinating Schwannoma cells; test: Fluorescence confocal microscopy staining of P0-expressing cells; format: cell-based; conditions: 1 µM, 1 h incubation at 4 °C, N = 3 per tracer
Experimental: Cells were trypsinized and seeded onto 35-mm culture dishes that contained a glass insert (MatTek co) on the day prior to the imaging experiment.
To all samples, 1 mL medium containing 1 µM Cy5-P0_1–25, Cy5-P0_21–45, Cy5-P0_41–65, Cy5-P0_61–85, Cy5-P0_81–105, Cy5-P0_95–120, or Cy5-P0_101–125 was added at one hour prior to imaging (incubation at 4 °C; N = 3 per tracer). Peptide solutions were sonicated for 20 s prior to addition, in order to prevent aggregation of the peptides in solution. Cy5-functionalized derivatives of a P0-specific antibody (Cy5-P0Ab-H60), the extracellular portion of P0 (Cy5-P0ex) as well as a non-P0-specific peptide (Cy5-NP-41) and non-functionalized Cy5-Maleimide were used as controls (1 µM). A lysosomal (lysotracker green; 2 µL/mL, DND-26, Thermo Fisher) and nuclear stain (Hoechst 33342; 1 mg/mL, Thermo Fisher) were added as means to localize the cell nucleus and intracellular lysosomes. […]
(§1) In vitro and ex vivo fluorescence confocal images were acquired using a Leica SP8 WL at sequential settings and 10 × or 63 × magnification. […] For blocking studies, quantification of the fluorescence signal intensity (N = 10 for blocked and non-blocked) in the obtained images was performed using ImageJ according to previously described methods. […]

[3] = target: T1, P0 (RT4 D6P2T Schwannoma cells) (Rattus norvegicus, UniProt P06907); test: Blocking experiment with P0Ab; format: cell-based; conditions: 5 µL of 1 mg/mL P0Ab one hour prior to tracer; N = 10; ImageJ quantification; p = 0.001
T1 construct: was performed using P0-expressing RT4 D6P2T cells; host or cells: RT4 D6P2T Schwannoma cells
T1 sequence (P06907 30-248): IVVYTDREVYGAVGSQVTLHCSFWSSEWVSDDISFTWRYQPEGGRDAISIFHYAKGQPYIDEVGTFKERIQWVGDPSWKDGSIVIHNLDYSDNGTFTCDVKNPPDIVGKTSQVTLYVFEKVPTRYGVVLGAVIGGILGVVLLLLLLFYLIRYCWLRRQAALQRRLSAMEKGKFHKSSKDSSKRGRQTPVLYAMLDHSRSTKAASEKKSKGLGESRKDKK
Experimental: To all samples, 1 mL medium containing 1 µM Cy5-P0_1–25, Cy5-P0_21–45, Cy5-P0_41–65, Cy5-P0_61–85, Cy5-P0_81–105, Cy5-P0_95–120, or Cy5-P0_101–125 was added at one hour prior to imaging (incubation at 4 °C; N = 3 per tracer). Peptide solutions were sonicated for 20 s prior to addition, in order to prevent aggregation of the peptides in solution. Cy5-functionalized derivatives of a P0-specific antibody (Cy5-P0Ab-H60), the extracellular portion of P0 (Cy5-P0ex) as well as a non-P0-specific peptide (Cy5-NP-41) and non-functionalized Cy5-Maleimide were used as controls (1 µM). A lysosomal (lysotracker green; 2 µL/mL, DND-26, Thermo Fisher) and nuclear stain (Hoechst 33342; 1 mg/mL, Thermo Fisher) were added as means to localize the cell nucleus and intracellular lysosomes. For blocking studies, 5 µL of a 1 mg/mL solution of non-functionalized P0Ab was added to the cells one hour prior to addition of Cy5-P0_101–125. The synthesis of the control compounds is described in the methods section of Additional file 1: Synthesis of control compounds.
as §1

[4] = Solubility in H2O; format: physicochemical; conditions: water; saturated solution in H2O at r.t., centrifugation, absorption of supernatant (UV/Vis)
[5] = Lipophilicity in octanol/water (LogPo/w); format: physicochemical; conditions: read-out: Lipophilicity (o/w), LogPo/w
Experimental: (§2) spectrometer (Pharmacia Biotech).
(§3) Serum protein binding and LogP o/w
(§4) functionalized Cy5 were determined as previously described (7).
(§5) The stability towards glutathione of Cy5-

[6] = Serum protein binding; format: in vitro ADME
Experimental: as §2, §3, §4, §5

[7] = Stability towards glutathione; format: physicochemical
Experimental: as §2, §3, §4, §5

[8] = serum

- tissue uptake at 4 h [1]: 0.12 ± 0.03 %ID/g
Structure (SMILES): CC[C@H](C)[C@H](NC(=O)[C@H](CC(=O)O)NC(=O)[C@@H]1CCCN1C(=O)[C@@H]1CCCN1C(=O)[C@H](CC(N)=O)NC(=O)[C@H](CCCCN)NC(C)=O)C(=O)N[C@H](C(=O)NCC(=O)N[C@@H](CCCCN)C(=O)N[C@H](C(=O)N[C@@H](CO)C(=O)N[C@@H](CCC(N)=O)C(=O)N[C@H](C(=O)N[C@H](C(=O)N[C@@H](CC(C)C)C(=O)N[C@@H](Cc1ccc(O)cc1)C(=O)N[C@H](C(=O)N[C@@H](Cc1ccccc1)C(=O)N[C@@H](CCC(=O)O)C(=O)N[C@@H](CCCCN)C(=O)N[C@H](C(=O)N1CCC[C@H]1C(=O)N[C@H](C(=O)N[C@@H](CCCNC(=N)N)C(=O)N[C@@H](Cc1ccc(O)cc1)C(=O)N[C@@H](CSC1CC(=O)N(CCNC(=O)CN(CCN(CC(=O)O)CC(=O)O)CCN(CC(=O)O)CC(=O)O)C1=O)C(N)=O)[C@@H](C)O)C(C)C)C(C)C)[C@@H](C)O)C(C)C)[C@@H](C)O)C(C)C (stereo partly drawn) [[^111In]In-DTPA-P0_101–125, metal not drawn] (Ac-KNPPDIVGKTSQVTLYVFEKVPTRYC(X3)-NH2)

Structure (SMILES): C[N+]1=C(/C=C/C=C/C=C2/N(CCCCCC(=O)NCCN3C(=O)C=CC3=O)c3ccccc3C2(C)C)C(C)(C)c2ccccc21.[Cl-] [Cy5-Maleimide]
- staining of P0-expressing Schwannoma cells [2]: no staining was observed

- Cy5-related fluorescence remaining after blocking with P0Ab [3]: 13.5 ± 7.1%
Structure (SMILES): CC[C@H](C)[C@H](NC(=O)[C@H](CC(=O)O)NC(=O)[C@@H]1CCCN1C(=O)[C@@H]1CCCN1C(=O)[C@H](CC(N)=O)NC(=O)[C@H](CCCCN)NC(C)=O)C(=O)N[C@H](C(=O)NCC(=O)N[C@@H](CCCCN)C(=O)N[C@H](C(=O)N[C@@H](CO)C(=O)N[C@@H](CCC(N)=O)C(=O)N[C@H](C(=O)N[C@H](C(=O)N[C@@H](CC(C)C)C(=O)N[C@@H](Cc1ccc(O)cc1)C(=O)N[C@H](C(=O)N[C@@H](Cc1ccccc1)C(=O)N[C@@H](CCC(=O)O)C(=O)N[C@@H](CCCCN)C(=O)N[C@H](C(=O)N1CCC[C@H]1C(=O)N[C@H](C(=O)N[C@@H](CCCNC(=N)N)C(=O)N[C@@H](Cc1ccc(O)cc1)C(=O)N[C@@H](CSC1CC(=O)N(CCNC(=O)CCCCC[N+]2=C(/C=C/C=C/C=C3/N(CCCCS(=O)(=O)O)c4ccc(S(=O)(=O)O)cc4C3(C)C)C(C)(C)c3cc(S(=O)(=O)[O-])ccc32)C1=O)C(N)=O)[C@@H](C)O)C(C)C)C(C)C)[C@@H](C)O)C(C)C)[C@@H](C)O)C(C)C (stereo partly drawn) [Cy5-P0_101–125] (Ac-KNPPDIVGKTSQVTLYVFEKVPTRYC(X1)-NH2)

Structure (SMILES): CC[C@H](C)[C@H](NC(=O)[C@H](CC(=O)O)NC(=O)[C@@H]1CCCN1C(=O)[C@@H]1CCCN1C(=O)[C@H](CC(N)=O)NC(=O)[C@H](CCCCN)NC(C)=O)C(=O)N[C@H](C(=O)NCC(=O)N[C@@H](CCCCN)C(=O)N[C@H](C(=O)N[C@@H](CO)C(=O)N[C@@H](CCC(N)=O)C(=O)N[C@H](C(=O)N[C@H](C(=O)N[C@@H](CC(C)C)C(=O)N[C@@H](Cc1ccc(O)cc1)C(=O)N[C@H](C(=O)N[C@@H](Cc1ccccc1)C(=O)N[C@@H](CCC(=O)O)C(=O)N[C@@H](CCCCN)C(=O)N[C@H](C(=O)N1CCC[C@H]1C(=O)N[C@H](C(=O)N[C@@H](CCCNC(=N)N)C(=O)N[C@@H](Cc1ccc(O)cc1)C(=O)N[C@@H](CSC1CC(=O)N(CCNC(=O)CCCCCN2C(=C/C=C/C=C/C3=[N+](CCCCS(=O)(=O)O)c4ccc(S(=O)(=O)[O-])cc4C3(C)C)C(C)(C)c3cc(S(=O)(=O)O)ccc32)C1=O)C(N)=O)[C@@H](C)O)C(C)C)C(C)C)[C@@H](C)O)C(C)C)[C@@H](C)O)C(C)C (stereo partly drawn) [Cy5-P0_101–125] (Ac-KNPPDIVGKTSQVTLYVFEKVPTRYC(X2)-NH2)
- solubility thermodynamic [4]: 172 µM (≈ 673 µg/mL)
- logP [5]: -1.39 ± 0.09
- Serum protein binding [6]: 89% ± 2%
- degradation when incubated with glutathione ([7]; 6 hr at 37 °C): 8%
- remaining at 6 h ([7]; buffer or solvent, 37 °C water bath, stock in H2O, HPLC UV/Vis): 92%
- remaining at 24 h [8]: 99%
